# Reference: US9732104B2, “Ether compounds for treatment of complement mediated disorders” (Achillion Pharmaceuticals, Inc., priority 2014, dated 2017)
# Target: Human factor D (Homo sapiens (Human), UniProt P00746)
# Test: Human Factor D Assay
# Format: biochemical
# Settings: Human factor D purified from human serum, 80 nM; substrate Z-L-Lys-SBzl with DTNB; assay of Example 8
# Protocol: The assay of Example 8 was used to determine the IC50's of the compounds. Other standard factor D inhibition assays are also available.
# Example 8. Human Factor D Assay
# Human factor D (purified from human serum, Complement Technology, Inc.) at 80 nM final concentration is incubated with test compound at various concentrations for 5 minutes at room temperature in 50 mM Tris, 1M NaCl, pH 7.5. A synthetic substrate Z-L-Lys-SBzl and DTNB (Ellman's reagent) are added to final concentrations of 100 µM each. The increase in color is recorded at OD405 nm in a microplate in kinetic mode over 30 minutes with 30 second time points in a […]. IC50 values are calculated by non-linear regression from the percentage of inhibition of complement factor D activity as a function of test compound concentration.
# Chain of Human factor D (P00746 26-253): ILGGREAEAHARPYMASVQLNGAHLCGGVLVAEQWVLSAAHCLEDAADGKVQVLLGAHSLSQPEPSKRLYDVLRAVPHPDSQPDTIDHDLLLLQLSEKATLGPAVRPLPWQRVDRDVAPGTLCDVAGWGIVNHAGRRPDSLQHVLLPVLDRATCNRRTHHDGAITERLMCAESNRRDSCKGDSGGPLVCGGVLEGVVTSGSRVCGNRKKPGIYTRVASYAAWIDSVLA
smiles,measurement,value
"CC(=O)c1cn(CC(=O)N2C[C@H](F)C[C@H]2C(=O)NCc2cccc(Cl)c2F)c2cc(OCC3CC3)ccc12 [Compound 1, (2S,4R)-1-(2-(3-acetyl-6-(cyclopropylmethoxy)-1H-indol-1-yl)acetyl)-N-(3-chloro-2-fluorobenzyl)-4-fluoropyrrolidine-2-carboxamide]",IC50,< 1 µM
"CC(=O)c1cn(CC(=O)N2C[C@H](F)C[C@H]2C(=O)NCc2cccc(Cl)c2F)c2cc(OS(=O)(=O)C(F)(F)F)ccc12 [Compound 2, 3-acetyl-1-(2-((2S,4R)-2-(3-chloro-2-fluorobenzylcarbamoyl)-4-fluoropyrrolidin-1-yl)-2-oxoethyl)-1H-indol-6-yl trifluoromethanesulfonate]",IC50,< 1 µM
"CC(=O)c1cn(CC(=O)N2[C@@H]3C[C@@H]3C[C@H]2C(=O)NCc2cccc(Cl)c2F)c2cc(OCC3CC3)ccc12 [Compound 3, (1R,3S,5R)-2-(2-(3-acetyl-6-(cyclopropylmethoxy)-1H-indol-1-yl)acetyl)-N-(3-chloro-2-fluorobenzyl)-2-azabicyclo[3.1.0]hexane-3-carboxamide]",IC50,< 1 µM
"CC(=O)c1cn(CC(=O)N2C[C@H](F)C[C@H]2C(=O)Nc2cccc(OC(F)(F)F)c2F)c2cc(OCC3CC3)ccc12 [Compound 4, (2S,4R)-1-(2-(3-acetyl-6-(cyclopropylmethoxy)-1H-indol-1-yl)acetyl)-4-fluoro-N-(2-fluoro-3-(trifluoromethoxy)phen-yl)pyrrolidine-2-carboxamide]",IC50,< 1 µM
"CC(=O)c1cn(CC(=O)N2C[C@H](F)C[C@H]2C(=O)NCc2cccc(Cl)c2F)c2cc(OCCC3CC3)ccc12 [Compound 5, (2S,4R)-1-(2-(3-acetyl-6-(2-cyclopropylethoxy)-1H-indol-1-yl)acetyl)-N-(3-chloro-2-fluorobenzyl)-4-fluoropyrrolidine-2-carboxamide]",IC50,< 1 µM
"CCOP(=O)(COc1ccc2c(C(C)=O)cn(CC(=O)N3C[C@H](F)C[C@H]3C(=O)NCc3cccc(Cl)c3F)c2c1)OCC [Compound 7, diethyl (3-acetyl-1-(2-((2S,4R)-2-(3-chloro-2-fluorobenzylcarbamoyl)-4-fluoropyrrolidin-1-yl)-2-oxoethyl)-1H-indol-6-yloxy)methylphosphonate]",IC50,< 1 µM
"CC(=O)c1cn(CC(=O)N2C[C@H](F)C[C@H]2C(=O)NCc2cccc(Cl)c2F)c2cc(OCP(=O)(O)O)ccc12 [Compound 8, (3-acetyl-1-(2-((2S,4R)-2-(3-chloro-2-fluorobenzylcarbamoyl)-4-fluoropyrrolidin-1-yl)-2-oxoethyl)-1H-indol-6-yloxy)methylphosphonic acid]",IC50,< 1 µM
"CC(=O)c1cn(CC(=O)N2C[C@H](F)C[C@H]2C(=O)NCc2cccc(Cl)c2F)c2ccc(OS(=O)(=O)C(F)(F)F)cc12 [Compound 9, 3-acetyl-1-(2-((2S,4R)-2-(3-chloro-2-fluorobenzylcarbamoyl)-4-fluoropyrrolidin-1-yl)-2-oxoethyl)-1H-indol-5-yl trifluoromethanesulfonate]",IC50,< 1 µM
"CCOP(=O)(COc1ccc2c(c1)c(C(C)=O)cn2CC(=O)N1C[C@H](F)C[C@H]1C(=O)NCc1cccc(Cl)c1F)OCC [Compound 10, diethyl (3-acetyl-1-(2-((2S,4R)-2-(3-chloro-2-fluorobenzylcarbamoyl)-4-fluoropyrrolidin-1-yl)-2-oxoethyl)-1H-indol-5-yloxy)methylphosphonate]",IC50,< 1 µM
"CC(=O)c1cn(CC(=O)N2C[C@H](F)C[C@H]2C(=O)NCc2cccc(Cl)c2F)c2ccc(OCP(=O)(O)O)cc12 [Compound 11, (3-acetyl-1-(2-((2S,4R)-2-(3-chloro-2-fluorobenzylcarbamoyl)-4-fluoropyrrolidin-1-yl)-2-oxoethyl)-1H-indol-5-yloxy)methylphosphonic acid]",IC50,< 1 µM
"CC(=O)c1cn(CC(=O)N2C[C@H](F)C[C@H]2C(=O)NCc2cccc(Cl)c2F)c2cc(OCP(=O)(OCOC(=O)OC(C)C)OCOC(=O)OC(C)C)ccc12 [Compound 12, (((3-acetyl-1-(2-((2S,4R)-2-(3-chloro-2-fluorobenzylcarbamoyl)-4-fluoropyrrolidin-1-yl)-2-oxoethyl)-1H-indol-6-yloxy)methyl)phospho-ryl)bis(oxy)bis(methylene) isopropyl dicarbonate]",IC50,< 1 µM
"CC(=O)c1cn(CC(=O)N2C[C@H](F)C[C@H]2C(=O)NCc2cccc(Cl)c2F)c2cc(OCP(=O)(O)OCOC(=O)OC(C)C)ccc12 [Compound 13, (((3-acetyl-1-(2-((2S,4R)-2-(3-chloro-2-fluorobenzylcarbamoyl)-4-fluoropyrrolidin-1-yl)-2-oxoethyl)-1H-indol-6-yloxy)methyl)(hydro-xy)phosphoryloxy)meth-yl isopropyl carbonate]",IC50,< 1 µM
"CCOP(=O)(CC)COc1ccc2c(C(C)=O)cn(CC(=O)N3C[C@H](F)C[C@H]3C(=O)NCc3cccc(Cl)c3F)c2c1 (stereo partly drawn) [Compound 14, ethyl (3-acetyl-1-(2-((2S,4R)-2-(3-chloro-2-fluorobenzylcarbamoyl)-4-fluoropyrrolidin-1-yl)-2-oxoethyl)-1H-indol-6-yloxy)methyl(eth-yl)phosphinate]",IC50,< 1 µM
"CC(=O)c1cn(CC(=O)N2C[C@H](F)C[C@H]2C(=O)NCc2cccc(Cl)c2F)c2cc(OCS(=O)(=O)NC(C)(C)C)ccc12 [Compound 15, (2S,4R)-1-(2-(3-acetyl-6-(N-tert-butylsulfamoylmethoxy)-1H-indol-1-yl)acetyl)-N-(3-chloro-2-fluorobenzyl)-4-fluoropyrrolidine-2-carboxamide]",IC50,< 1 µM
"CCP(=O)(O)COc1ccc2c(C(C)=O)cn(CC(=O)N3C[C@H](F)C[C@H]3C(=O)NCc3cccc(Cl)c3F)c2c1 [Compound 16, (3-acetyl-1-(2-((2S,4R)-2-(3-chloro-2-fluorobenzylcarbamoyl)-4-fluoropyrrolidin-1-yl)-2-oxoethyl)-1H-indol-6-yloxy)methyl(eth-yl)phosphinic acid]",IC50,< 1 µM
"CC(=O)c1cn(CC(=O)N2C[C@H](F)C[C@H]2C(=O)NCc2cccc(Cl)c2F)c2cc(OCS(N)(=O)=O)ccc12 [Compound 17, (2S,4R)-1-(2-(3-acetyl-6-(sulfamoylmethoxy)-1H-indol-1-yl)acetyl)-N-(3-chloro-2-fluorobenzyl)-4-fluoropyrrolidine-2-carboxamide]",IC50,< 1 µM
"CCOP(=O)(COc1ccc2c(C(C)=O)cn(CC(=O)N3C[C@H](F)C[C@H]3C(=O)N[C@H](C)c3cccc(Cl)c3F)c2c1)OCC [Compound 18, diethyl (3-acetyl-1-(2-((2S,4R)-2-((R)-1-(3-chloro-2-fluorophen-yl)ethylcarbamoyl)-4-fluoropyrrolidin-1-yl)-2-oxoethyl)-1H-indol-6-yloxy)methylphosphonate]",IC50,< 1 µM
"CC(=O)c1cn(CC(=O)N2C[C@H](F)C[C@H]2C(=O)N[C@H](C)c2cccc(Cl)c2F)c2cc(OCP(=O)(O)O)ccc12 [Compound 19, (3-acetyl-1-(2-((2S,4R)-2-((R)-1-(3-chloro-2-fluorophenyl)ethyl-carbamoyl)-4-fluoropyrrolidin-1-yl)-2-oxoethyl)-1H-indol-6-yloxy)methylphosphonic acid]",IC50,< 1 µM
"CCCCCCCCCCCCCCCCOCCCOP(=O)(O)COc1ccc2c(C(C)=O)cn(CC(=O)N3C[C@H](F)C[C@H]3C(=O)NCc3cccc(Cl)c3F)c2c1 [Compound 20, 3-(hexadecyloxy)propyl hydrogen (3-acetyl-1-(2-((2S,4R)-2-(3-chloro-2-fluorobenzylcarbamoyl)-4-fluoropyrrolidin-1-yl)-2-oxoethyl)-1H-indol-6-yloxy)methylphosphonate]",IC50,< 1 µM
"CC(=O)c1cn(CC(=O)N2C[C@H](F)C[C@H]2C(=O)NCc2cccc(Cl)c2F)c2cc(OCP(=O)(OCOC(=O)C(C)(C)C)OCOC(=O)C(C)(C)C)ccc12 [Compound 21, (((3-acetyl-1-(2-((2S,4R)-2-(3-chloro-2-fluorobenzylcarbamoyl)-4-fluoropyrrolidin-1-yl)-2-oxoethyl)-1H-indol-6-yloxy)methyl)phosph-oryl)bis(oxy)bis(meth-ylene) bis(2,2-dimethylpropanoate)]",IC50,< 1 µM
"CC(=O)c1cn(CC(=O)N2C[C@H](F)C[C@H]2CNS(=O)(=O)c2cccc(Cl)c2F)c2cc(OCP(=O)(O)O)ccc12 [Compound 22, (3-acetyl-1-(2-((2S,4R)-2-((3-chloro-2-fluoro-phenylsulfonamido)meth-yl)-4-fluoropyrrolidin-1-yl)-2-oxoethyl)-1H-indol-6-yloxy)methylphosphonic acid]",IC50,< 1 µM
"CCC(=O)OC(OP(=O)(COc1ccc2c(C(C)=O)cn(CC(=O)N3C[C@H](F)C[C@H]3C(=O)NCc3cccc(Cl)c3F)c2c1)OC(OC(=O)CC)C(C)C)C(C)C (stereo partly drawn) [Compound 23, 1,1′-(((3-acetyl-1-(2-((2S,4R)-2-(3-chloro-2-fluorobenzylcarbamoyl)-4-fluoropyrrolidin-1-yl)-2-oxoethyl)-1H-indol-6-yloxy)methyl)phosph-oryl)bis(oxy)bis(2-methylpropane-1,1-diyl) dipropionate]",IC50,< 1 µM
"CC(=O)c1cn(CC(=O)N2C[C@H](F)C[C@H]2C(=O)NCc2cccc(Cl)c2F)c2cc(OCP(=O)(N[C@@H](C)C(=O)OC(C)C)N[C@@H](C)C(=O)OC(C)C)ccc12 [Compound 24, (2S,2′S)-isopropyl 2,2′-(((3-acetyl-1-(2-((2S,4R)-2-(3-chloro-2-fluorobenzylcarbamoyl)-4-fluoropyrrolidin-1-yl)-2-oxoethyl)-1H-indol-6-yloxy)methyl)phosph-oryl)bis(azanediyl)di-propanoate]",IC50,< 1 µM
